From patent US11014911B2, “CDK2 inhibitors” (Pfizer Inc., priority 2019, dated 2021)
pKi: −log10 of the molar value.

Columns and labels:
[1] = molecular target: CDK2/Cyclin E1 full length (Homo sapiens (Human), UniProt P24941); test: CDK2/Cyclin E1 full length mobility shift assay; assay type: biochemical
GSK3β (H350L) = GSK3β (H350L) (Homo sapiens (Human), UniProt P49841); conditions: read-out: GSK3β Ki
Sequence of GSK3β (H350L) (P49841 whole entry, stated change not applied): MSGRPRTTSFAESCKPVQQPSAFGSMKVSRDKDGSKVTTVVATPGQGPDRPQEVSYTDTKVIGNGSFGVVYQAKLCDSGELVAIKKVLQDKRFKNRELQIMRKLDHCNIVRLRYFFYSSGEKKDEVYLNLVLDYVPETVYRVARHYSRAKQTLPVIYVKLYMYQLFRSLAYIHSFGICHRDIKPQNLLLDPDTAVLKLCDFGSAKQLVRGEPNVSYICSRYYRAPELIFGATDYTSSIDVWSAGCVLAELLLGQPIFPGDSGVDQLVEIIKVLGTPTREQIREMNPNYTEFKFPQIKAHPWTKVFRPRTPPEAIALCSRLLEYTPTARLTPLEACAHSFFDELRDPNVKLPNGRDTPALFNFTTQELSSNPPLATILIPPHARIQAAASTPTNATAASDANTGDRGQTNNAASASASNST
Procedure: The assay was initiated with the addition of ATP, following 15 minutes pre-incubation of enzyme and inhibitor at room temperature in the reaction mixture. The reaction was stopped after 30 minutes at room temperature by the addition of 50 μL of 80 mM EDTA.

Structure (SMILES)	pKi [1]	pKi (GSK3β (H350L))
CCCNC(=O)O[C@H]1CC[C@@H](c2cc(NC(=O)Cc3ccc(OC)cn3)n[nH]2)C1 [Example 186, (1S,3R)-3-(3-{[(5-methoxypyridin-2-yl)acetyl]amino}-1H-pyrazol-5-yl)cyclopentyl propylcarbamate]	8.99	8.02
CC[C@H](C)NC(=O)O[C@@H]1CC[C@H](c2cc(NC(=O)c3ccc(C)nc3)n[nH]2)C1 [Example 324, (1R,3S)-3-(3-{[(6-methylpyridin-3-yl)carbonyl]amino}-1H-pyrazol-5-yl)cyclopentyl (2S)-butan-2-ylcarbamate]	9.27	7.03
COc1cc(CC(=O)Nc2cc([C@H]3CC[C@@H](OC(=O)N4CCC4(C)C)C3)[nH]n2)ccn1 [Example 146]	10.15	8.46
CCCNC(=O)O[C@H]1CC[C@@H](c2cc(NC(=O)Cc3ccccn3)n[nH]2)C1 [Example 171, (1S,3R)-3-{3-[(pyridin-2-ylacetyl)amino]-1H-pyrazol-5-yl}cyclopentyl propylcarbamate]	8.76	7.74
C[C@]1(O)CC[C@H](NC(=O)O[C@@H]2CC[C@H](c3cc(NC(=O)Cc4cc(F)cc(F)c4)n[nH]3)C2)CC1 [Example 573, (1R,3S)-3-(3-{[(3,5-difluorophenyl)acetyl]amino}-1H-pyrazol-5-yl)cyclopentyl (trans-4-hydroxy-4-methylcyclohexyl)carbamate]	9.08	7.85
COc1cc(CC(=O)Nc2cc([C@@H]3CC[C@H](OC(=O)N4C[C@@](C)(O)[C@@H]4C)C3)[nH]n2)ccn1 [Example 624, (1S,3R)-3-(3-{[(2-methoxypyridin-4-yl)acetyl]amino}-1H-pyrazol-5-yl)cyclopentyl (2S,3R)-3-hydroxy-2,3-dimethylazetidine-1-carboxylate]	8.38	7.79
CCCNC(=O)O[C@@H]1CC[C@H](c2cc(NC(=O)Cc3ccccc3S(=O)(=O)CC)n[nH]2)C1 [Example 205, (1R,3S)-3-[3-({[2-(ethylsulfonyl)phenyl]-acetyl}amino)-1H-pyrazol-5-yl]cyclopentyl propylcarbamate]	9.12	7.01
Cc1cnc(CC(=O)Nc2cc([C@H]3CC[C@@H](OC(=O)NC(C)(C)C)C3)[nH]n2)o1 [Example 11, (1R,3S)-3-(3-{[(5-methyl-1,3-oxazol-2-yl)acetyl]amino}-1H-pyrazol-5-yl)cyclopentyl tert-butylcarbamate]	9.49	7.44
C[C@@H](CC(F)(F)F)NC(=O)O[C@@H]1CC[C@H](c2cc(NC(=O)c3cnnn3C)n[nH]2)C1 [Example 91]	10.05	7.55
CCCNC(=O)O[C@H]1CC[C@@H](c2cc(NC(=O)c3ccc(C)nc3C)n[nH]2)C1 [Example 180, (1S,3R)-3-(3-{[(2,6-dimethylpyridin-3-yl)carbonyl]amino}-1H-pyrazol-5-yl)cyclopentyl propylcarbamate]	9.09	< 7.02
O=C(Cc1cc(F)cc(F)c1)Nc1cc([C@@H]2CC[C@H](OC(=O)N[C@H]3CC[C@@H](O)CC3)C2)[nH]n1 [Example 27]	9.62	8.45
COc1cc(CC(=O)Nc2cc([C@H]3CC[C@@H](OC(=O)N(C)C(C)C)C3)[nH]n2)ccn1 [Example 58]	9.68	8.01
Cc1cc(CC(=O)Nc2cc([C@H]3CC[C@@H](OC(=O)N4CCOC[C@@H]4C)C3)[nH]n2)on1 [Example 642, (1R,3S)-3-(3-{[(3-methyl-1,2-oxazol-5-yl)acetyl]amino}-1H-pyrazol-5-yl)cyclopentyl (3S)-3-methylmorpholine-4-carboxylate]	8.86	7.99
C[C@@H](CC(F)(F)F)NC(=O)O[C@@H]1CC[C@H](c2cc(NC(=O)Cc3cnn(C)c3)n[nH]2)C1 [Example 92]	10.00	7.78
COCCn1nccc1C(=O)Nc1cc([C@H]2CC[C@@H](OC(=O)NC(C)C)C2)[nH]n1 [Example 278, (1R,3S)-3-[3-({[1-(2-methoxyethyl)-1H-pyrazol-5-yl]carbonyl}amino)-1H-pyrazol-5-yl]cyclopentyl propan-2-ylcarbamate]	9.28	7.25
CC1(C)CCCN1C(=O)O[C@@H]1CC[C@H](c2cc(NC(=O)Cc3ccon3)n[nH]2)C1 [Example 135]	9.72	7.93
COCc1cc(C(=O)Nc2cc([C@H]3CC[C@@H](OC(=O)N[C@H](C)C4CC4)C3)[nH]n2)n(C)n1 [Example 105]	9.33	< 7.32
CC[C@H](C)NC(=O)O[C@@H]1CC[C@H](c2cc(NC(=O)Cc3cc(OC)ccc3S(C)(=O)=O)n[nH]2)C1 [Example 50]	9.77	6.93
C[C@]1(O)CC[C@@H](NC(=O)O[C@H]2CC[C@@H](c3cc(NC(=O)Cc4ccccc4)n[nH]3)C2)CC1 [Example 558, (1S,3R)-3-{3-[(phenylacetyl)amino]-1H-pyrazol-5-yl}cyclopentyl (cis-4-hydroxy-4-methylcyclohexyl)carbamate]	9.39	7.73
COc1cnc(CC(=O)Nc2cc([C@H]3CC[C@@H](OC(=O)NC(C)(C)C)C3)[nH]n2)cn1 [Example 109]	9.17	7.41
Cc1cnc(CC(=O)Nc2cc([C@H]3CC[C@@H](OC(=O)N4CCC[C@@H]4C)C3)[nH]n2)o1 [Example 635, (1R,3S)-3-(3-{[(5-methyl-1,3-oxazol-2-yl)acetyl]amino}-1H-pyrazol-5-yl)cyclopentyl (2S)-2-methylpyrrolidine-1-carboxylate]	9.28	7.79
C[C@H]1COCCN1C(=O)O[C@@H]1CC[C@H](c2cc(NC(=O)Cc3cc(F)cc(F)c3)n[nH]2)C1 [Example 644, (1R,3S)-3-(3-{[(3,5-difluorophenyl)acetyl]amino}-1H-pyrazol-5-yl)cyclopentyl (3S)-3-methylmorpholine-4-carboxylate]	9.48	8.06
Cc1ncc(CC(=O)Nc2cc([C@@H]3CC[C@H](OC(=O)N[C@H]4CC[C@@H](O)CC4)C3)[nH]n2)s1 [Example 550, (1S,3R)-3-(3-{[(2-methyl-1,3-thiazol-5-yl)acetyl]amino}-1H-pyrazol-5-yl)cyclopentyl (cis-4-hydroxycyclohexyl)carbamate]	9.44	8.51
COc1cc(CC(=O)Nc2cc([C@H]3CC[C@@H](OC(=O)N[C@@H](C)CF)C3)[nH]n2)ccn1 [Example 100]	9.37	7.38
COc1cc(CC(=O)Nc2cc([C@H]3CC[C@@H](OC(=O)NCCC(F)(F)F)C3)[nH]n2)ccn1 [Example 102]	9.41	8.00
COc1ccc(CC(=O)Nc2cc([C@H]3CC[C@@H](OC(=O)NCC(F)F)C3)[nH]n2)cn1 [Example 252, (1R,3S)-3-(3-{[(6-methoxypyridin-3-yl)acetyl]amino}-1H-pyrazol-5-yl)cyclopentyl (2,2-difluoroethyl)carbamate]	8.86	7.98
CCCNC(=O)O[C@H]1CC[C@@H](c2cc(NC(=O)c3cc(C)nn3C)n[nH]2)C1 [Example 172, (1S,3R)-3-(3-{[(1,3-dimethyl-1H-pyrazol-5-yl)carbonyl]amino}-1H-pyrazol-5-yl)cyclopentyl propylcarbamate]	8.92	6.99
